pEC50: −log10 of the molar value.
Assays:
[1] = biological target: T1, human liver GK (GST-hLGK1) (Homo sapiens, UniProt P35557); assay: Determination of GK activity value (Mant-ATP to Mant-ADP conversion, capillary electrophoresis); format: biochemical; conditions: reaction started with 25 mM D-glucose solution, 37° C., 60 min, concentration at midpoint between maximum activity value and control group activity value
T1 construct: with a BamHI site added to immediately before the initiation codon; made in house; host or cells: Escherichia coli BL21 (Stratagene), plasmid pGEX6P-2/hLGK1
T1 sequence (P35557 1-464 isoform P35557-3): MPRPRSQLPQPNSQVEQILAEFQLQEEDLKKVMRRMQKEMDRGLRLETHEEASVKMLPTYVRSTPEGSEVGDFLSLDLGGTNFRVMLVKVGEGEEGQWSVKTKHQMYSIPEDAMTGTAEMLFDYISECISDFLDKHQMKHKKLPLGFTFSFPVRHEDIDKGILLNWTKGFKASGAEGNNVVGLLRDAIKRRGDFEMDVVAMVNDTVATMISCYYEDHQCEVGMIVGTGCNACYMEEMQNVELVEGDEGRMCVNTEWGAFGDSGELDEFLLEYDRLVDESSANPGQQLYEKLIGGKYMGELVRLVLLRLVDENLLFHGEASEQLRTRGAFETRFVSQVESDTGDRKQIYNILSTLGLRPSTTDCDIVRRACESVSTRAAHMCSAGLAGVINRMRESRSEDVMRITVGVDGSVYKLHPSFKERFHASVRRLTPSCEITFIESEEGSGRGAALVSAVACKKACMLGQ
Procedure: Plasmid DNA to be used for the expression of a protein (GST-hLGK1) containing GST (Glutathione S-transferase) added to the amino terminal of human liver GK in Escherichia coli was prepared as follows.
First, PCR was performed using human liver cDNA (Marathon Ready cDNA, Clontech Laboratories, Inc.) as a template and two kinds of synthetic DNAs (5′-[…]-3′ (SEQ ID NO: 1) and 5′-[…]-3′ (SEQ ID NO: 2)), and the obtained DNA fragment was closed using a TOPO TA Cloning Kit (Invitrogen Corporation). PCR was performed using the obtained plasmid DNA as a template and a synthetic DNA (5′-[…] CAGAG-3′ (SEQ ID NO: 3)) with a BamHI site added to immediately before the initiation codon, and a synthetic DNA (5′-[…]-3′ (SEQ ID NO: 4)) with an EcoRI site added to immediately after the stop codon. The obtained DNA fragment was subcloned to pGEX6P-2 (Amersham Biosciences K.K.) cleaved with BamHI and EcoRI to give a plasmid (pGEX6P-2/hLGK1) for expression of human liver GK.
BL21 strain (Stratagene) transformed with pGEX6P-2/hLGK1 obtained in (1) was cultured with shaking at 37° C. for 14 hr in a 200 ml Erlenmeyer flask containing 50 ml of 100 μg/ml ampicillin-containing LB medium. The culture medium (25 ml) was diluted with 225 ml of 100 μg/ml ampicillin-containing LB medium, and further cultured with shaking at 37° C. for 1 hr in a 1 L Erlenmeyer flask. After culture, the Erlenmeyer flask was cooled on ice, 125 μL of 100 mM isopropyl-thio-β-D-galactopyranoside (IPTG) was added (final concentration 50 μM), and cultured at 17° C. for 20 hr. The culture medium was centrifuged, and the obtained fungus was disrupted by ultrasonication. The object protein (GST-hLGK1) was purified from the supernatant using Glutathione Sepharose 4B (Amersham Biosciences K.K.).
A solution (5 μL) of test compound in 50% dimethyl sulfoxide was added to each well of 384 well black plate (Nalge Nunc International K.K.). Then, a solution (35 μL) obtained by diluting GST-hLGK1 obtained in (2) with measurement buffer (containing 50 mM HEPES (pH 7.4), 200 mM KCl, 5 mM MgCl2, 2.5 mM DTT and 50 μM 2′-(or-3′)-O—(N-methylanthraniloyl)adenosine 5′-triphosphate (Mant-ATP) (Jena Bioscience GmbH)) to 6 μg/mL was added to each well.
Each well was stood at 37° C. for 10 min, and 25 mM D-glucose solution (10 μL) was added to start the reaction.
Each well after the reaction was stood at 37° C. for 60 min, and the reaction was quenched by adding 25 μL of a quenching solution (containing 200 mM HEPES (pH 7.4), 20 mM MgCl2, 200 mM EDTA, 0.03% Triton-X 100, 0.3% Coating 3 reagent (Caliper Life Sciences, Inc.)).
2′-(or -3′)-O—(N-methylanthraniloyl)adenosine 5′-triphosphate (Mant-ATP, substrate) and Mant-ADP (reaction resultant product) were separated from each well after the reaction by a microchip type capillary electrophoresis apparatus 250 HTS (Caliper Life Sciences, Inc.). The reaction rate [(reaction resultant product peak height)/(reaction resultant product peak height+substrate peak height)×100(%)] was calculated from the ratio of the substrate peak height and reaction resultant product peak height obtained by fluorescence detection (excitation wavelength 355 nm, measurement wavelength 460 nm) and used as the index of GK activity.
3.5 As a control group, the reaction rate was calculated in the same manner as above except that “solution in 50% dimethyl sulfoxide (without test compound)” was used instead of “solution of test compound in 50% dimethyl sulfoxide”.
A concentration dependency curve of the test compound was drawn with the percentage obtained by dividing the reaction rate of the well added with the test compound (test compound addition group) by the reaction rate of the control group was taken as the GK activity value of the test compound, and the concentration of the test compound at the midpoint between the maximum activity value of the test compound addition group and the control group activity value is shown as EC50 value.

With `CNC(=O)CC1CN=C(c2cc3cc(Oc4ccc(S(C)(=O)=O)cn4)cc(OC4CCOCC4)c3[nH]2)S1` (centres unmarked) [Example 17, N-Methyl-2-{2-[5-{[5-(methylsulfonyl)pyridin-2-yl]oxy}-7-(tetrahydro-2H-pyran-4-yloxy)-1H-indol-2-yl]-4,5-dihydro-1,3-thiazol-5-yl}acetamide] the pEC50 [1] was 7.05 and the melting point was 170 to 172 °C.
In the case of `CS(=O)(=O)c1ccc(Oc2ccc3[nH]c(C4=NCC(CC(=O)N5CCOCC5)S4)cc3c2)cn1` (single isomer, unassigned) [Example 69, 5-{[6-(Methylsulfonyl)pyridin-3-yl]oxy}-2-[5-(2-morpholin-4-yl-2-oxoethyl)-4,5-dihydro-1,3-thiazol-2-yl]-1H-indole], the pEC50 [1] was 7.55 and the melting point was 167 to 168 °C.
For `CCNC(=O)CC1CN=C(c2cc3cc(Oc4ccc(S(C)(=O)=O)nc4)cc(OC4CCOCC4)c3[nH]2)S1` (centres unmarked) [Example 42, N-Ethyl-2-{2-[5-{[6-(methylsulfonyl)pyridin-3-yl]oxy}-7-(tetrahydro-2H-pyran-4-yloxy)-1H-indol-2-yl]-4,5-dihydro-1,3-thiazol-5-yl}acetamide], the pEC50 [1] was 7.68 and the melting point was 197 to 198 °C.
`COCc1ccc(Oc2cc(OC3CCOCC3)c3[nH]c(C4=NCC(CCO)S4)cc3c2)cn1` (centres unmarked) [Example 7, 2-{2-[5-{[6-(Methoxymethyl)pyridin-3-yl]oxy}-7-(tetrahydro-2H-pyran-4-yloxy)-1H-indol-2-yl]-4,5-dihydro-1,3-thiazol-5-yl}ethanol] gave a pEC50 [1] of 7.85.
Work on `CCNC(=O)CC1CN=C(c2cc3cc(Oc4ccc(S(C)(=O)=O)nc4)ccc3[nH]2)S1` (centres unmarked) [Example 54, N-Ethyl-2-[2-(5-{[6-(methylsulfonyl)pyridin-3-yl]oxy}-1H-indol-2-yl)-4,5-dihydro-1,3-thiazol-5-yl]acetamide] yielded a pEC50 [1] of 6.92 and a melting point of 216 to 217 °C.
Compound `CS(=O)(=O)c1ccc(Oc2cc(OC3CCOCC3)c3[nH]c(C4=NCC(CC(=O)NC5CC5)S4)cc3c2)cn1` (centres unmarked) [Example 37, N-Cyclopropyl-2-{2-[5-{[6-(methylsulfonyl)pyridin-3-yl]oxy}-7-(tetrahydro-2H-pyran-4-yloxy)-1H-indol-2-yl]-4,5-dihydro-1,3-thiazol-5-yl}acetamide] has a pEC50 [1] of 7.80 and a melting point of 175 to 176 °C.
Compound `CNC(=O)CC1CN=C(c2cc3cc(Oc4ccc(S(C)(=O)=O)nc4)cc(C)c3[nH]2)S1` (centres unmarked) [Example 73, 2-[2-(7-Methyl-5-{[6-(methylsulfonyl)pyridin-3-yl]oxy}-1H-indol-2-yl)-4,5-dihydro-1,3-thiazol-5-yl]-N-methylacetamide] has a pEC50 [1] of 7.48 and a melting point of 183 to 184 °C.
`COCCOCc1ccc(Oc2cc(OC3CCOCC3)c3[nH]c(C4=NCC(CCO)S4)cc3c2)cn1` (centres unmarked) [Example 20, 2-{2-[5-({6-[(2-Methoxyethoxy)methyl]pyridin-3-yl}oxy)-7-(tetrahydro-2H-pyran-4-yloxy)-1H-indol-2-yl]-4,5-dihydro-1,3-thiazol-5-yl}ethanol] showed a pEC50 [1] of 7.57.
Work on `CNC(=O)CC1CN=C(c2cc3cc(Oc4ccc(S(C)(=O)=O)nc4)cc(OC4CCOCC4)c3[nH]2)S1` (single isomer, unassigned) [Example 36, N-Methyl-2-{2-[5-{[6-(methylsulfonyl)pyridin-3-yl]oxy}-7-(tetrahydro-2H-pyran-4-yloxy)-1H-indol-2-yl]-4,5-dihydro-1,3-thiazol-5-yl}acetamide] yielded a pEC50 [1] of 7.80.
In the case of `COCCNC(=O)CC1CN=C(c2cc3cc(Oc4ccc(S(C)(=O)=O)nc4)ccc3[nH]2)S1` (single isomer, unassigned) [Example 67, N-(2-Methoxyethyl)-2-[2-(5-{[6-(methylsulfonyl)pyridin-3-yl]oxy}-1H-indol-2-yl)-4,5-dihydro-1,3-thiazol-5-yl]acetamide], the pEC50 [1] was 7.05.
`CN(C)C(=O)CC1CN=C(c2cc3cc(Oc4ccc(S(C)(=O)=O)nc4)ccc3[nH]2)S1` (single isomer, unassigned) [Example 65, N,N-Dimethyl-2-[2-(5-{[6-(methylsulfonyl)pyridin-3-yl]oxy}-1H-indol-2-yl)-4,5-dihydro-1,3-thiazol-5-yl]acetamide] showed a pEC50 [1] of 7.18.
`CS(=O)(=O)c1ccc(Oc2cc(OC3CCOCC3)c3[nH]c(C4=NCC(CC(N)=O)S4)cc3c2)cn1` (single isomer, unassigned) [Example 32, 2-{2-[5-{[6-(Methylsulfonyl)pyridin-3-yl]oxy}-7-(tetrahydro-2H-pyran-4-yloxy)-1H-indol-2-yl]-4,5-dihydro-1,3-thiazol-5-yl}acetamide] gave a pEC50 [1] of 7.80.
Work on `CS(=O)(=O)Cc1ccc(Oc2cc(OC3CCOCC3)c3[nH]c(C4=NCC(CCO)S4)cc3c2)cn1` (centres unmarked) [Example 24, 2-{2-[5-({6-[(Methylsulfonyl)methyl]pyridin-3-yl}oxy)-7-(tetrahydro-2H-pyran-4-yloxy)-1H-indol-2-yl]-4,5-dihydro-1,3-thiazol-5-yl}ethanol] yielded a pEC50 [1] of 7.72.
Compound `CNC(=O)CC1CN=C(c2cc3cc(Oc4ccc(S(C)(=O)=O)nc4)cc(OC4CCOCC4)c3[nH]2)S1` (single isomer, unassigned) [Example 35, N-Methyl-2-{2-[5-{[6-(methylsulfonyl)pyridin-3-yl]oxy}-7-(tetrahydro-2H-pyran-4-yloxy)-1H-indol-2-yl]-4,5-dihydro-1,3-thiazol-5-yl}acetamide] has a pEC50 [1] of 7.51.
With `CS(=O)(=O)c1ccc(Oc2cc(OC3CCOCC3)c3[nH]c(C4=NCC(CC(N)=O)S4)cc3c2)cn1` (single isomer, unassigned) [Example 33, 2-{2-[5-{[6-(Methylsulfonyl)pyridin-3-yl]oxy}-7-(tetrahydro-2H-pyran-4-yloxy)-1H-indol-2-yl]-4,5-dihydro-1,3-thiazol-5-yl}acetamide] the pEC50 [1] was 7.59.
In the case of `CS(=O)(=O)c1ccc(Oc2cc(OC3CCOCC3)c3[nH]c(C4=NCC(CC(=O)N5CC(O)C5)S4)cc3c2)nc1` (centres unmarked) [Example 18, 1-({2-[5-{[5-(Methylsulfonyl)pyridin-2-yl]oxy}-7-(tetrahydro-2H-pyran-4-yloxy)-1H-indol-2-yl]-4,5-dihydro-1,3-thiazol-5-yl}acetyl)azetidin-3-ol], the melting point was 180 to 181 °C.
Compound `CNC(=O)CC1CN=C(c2cc3cc(Oc4ccc(CS(C)(=O)=O)nc4)cc(OC4CCOCC4)c3[nH]2)S1` (centres unmarked) [Example 27, N-Methyl-2-{2-[5-({6-[(methylsulfonyl)methyl]pyridin-3-yl}oxy)-7-(tetrahydro-2H-pyran-4-yloxy)-1H-indol-2-yl]-4,5-dihydro-1,3-thiazol-5-yl}acetamide] has a melting point of 157 to 158 °C.

Source: patent US8557805B2, “Fused ring compound and use thereof” (Takeda Pharmaceutical Company Limited, priority 2008, dated 2013)
